Test results from US9675617B2, “Tetrahydrofolates in combination with EGFR-inhibitors” (ISOFOL MEDICAL AB, priority 2012, dated 2017).

Experiments:
[1] = in the body; no source or species given; cited from earlier work
[2] = test system: LoVo tumor cells; test: Anti-tumoral efficacy in the colorectal adenocarcinoma xenograft model LoVo; type: in vivo, NCr nu/nu mice
Method: Study Design: A total of 50 female NCr nu/nu mice (10 per group) at the age of 8-12 weeks were injected with 1×10^7 LoVo tumor cells in 50% Matrigel sc in flank. After seven days they were administered intraperitoneal injections according to the schedule in table 2. Animals were monitored individually. The endpoint of the experiment was a tumor weight of 1000 mm^3 or 75 days, whichever came first. Responders could be followed longer. When the endpoint was reached, the animals were euthanized. Body weight (g) and tumor volume (mm^3) was measured on days 1, 2, 3, 4, 5, 7, 11, 14, 18, 21, 25, 28, 32, 35, 39, 42, 46, 49, 53, 56, 60, 63, 67, 70 and 74.

| Structure (SMILES) | half life [1] | Median tumor volume over time (FIG. 2), in words ([2]; LoVo xenograft, days 1-74) | Time to endpoint, Kaplan-Meier plot (FIG. 3), in words ([2]; endpoint: tumor weight of 1000 mm^3 or 75 days) |
| --- | --- | --- | --- |
| CN1c2c(nc(N)[nH]c2=O)NCC1CNc1ccc(C(=O)N[C@@H](CCC(=O)O)C(=O)O)cc1 (stereo partly shown) [methyl-THF, 5-methyltetrahydrofolate] | approximately 5 hours |  |  |
| Nc1nc2c(c(=O)[nH]1)N1CN(c3ccc(C(=O)N[C@@H](CCC(=O)O)C(=O)O)cc3)CC1CN2 (stereo partly shown) [methylene-THF, 5,10-methylene tetrahydrofolate] | approximately 20 min | enhances the anti-tumor growth effect of cetuximab | enhancing the beneficial effect of cetuximab |
